Reference: PubChem BioAssay (NCI)
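Each compound was tested at five concentrations against cells in 96-well plates for 48 hours. GI50 is the concentration that inhibits growth by half. TGI: concentration producing complete growth inhibition.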

Key:
Experiment in all cases: NCI-60 cell line screen, 48 h
786-0 renal = test system: 786-0 renal
A498 renal = test system: A498 renal
A549 NSCLC = test system: A549 NSCLC
ACHN renal = test system: ACHN renal
BT-549 breast = test system: BT-549 breast
CAKI-1 renal = test system: CAKI-1 renal
CCRF-CEM leukemia = test system: CCRF-CEM leukemia
COLO 205 colon = test system: COLO 205 colon
DU-145 prostate = test system: DU-145 prostate
EKVX NSCLC = test system: EKVX NSCLC
HCC-2998 colon = test system: HCC-2998 colon
HCT-116 colon = test system: HCT-116 colon
HCT-15 colon = test system: HCT-15 colon
HL-60(TB) leukemia = test system: HL-60(TB) leukemia
HOP-62 NSCLC = test system: HOP-62 NSCLC
HOP-92 NSCLC = test system: HOP-92 NSCLC
HS 578T breast = test system: HS 578T breast
HT29 colon = test system: HT29 colon
IGROV1 ovarian = test system: IGROV1 ovarian
K-562 leukemia = test system: K-562 leukemia
KM12 colon = test system: KM12 colon
LOX IMVI melanoma = test system: LOX IMVI melanoma
M14 melanoma = test system: M14 melanoma
MALME-3M melanoma = test system: MALME-3M melanoma
MCF7 breast = test system: MCF7 breast
MDA-MB-435 = test system: MDA-MB-435
MDA-MB-468 breast = test system: MDA-MB-468 breast
MOLT-4 leukemia = test system: MOLT-4 leukemia
NCI-H226 lung = test system: NCI-H226 lung
NCI-H23 lung = test system: NCI-H23 lung
NCI-H460 lung = test system: NCI-H460 lung
NCI-H522 lung = test system: NCI-H522 lung
NCI/ADR-RES ovarian = test system: NCI/ADR-RES ovarian
OVCAR-3 ovarian = test system: OVCAR-3 ovarian
OVCAR-4 ovarian = test system: OVCAR-4 ovarian
OVCAR-5 ovarian = test system: OVCAR-5 ovarian
OVCAR-8 ovarian = test system: OVCAR-8 ovarian
PC-3 prostate = test system: PC-3 prostate
RPMI-8226 leukemia = test system: RPMI-8226 leukemia
RXF 393 renal = test system: RXF 393 renal
SF-268 CNS = test system: SF-268 CNS
SF-295 CNS = test system: SF-295 CNS
SF-539 CNS = test system: SF-539 CNS
SK-MEL-28 melanoma = test system: SK-MEL-28 melanoma
SK-MEL-5 melanoma = test system: SK-MEL-5 melanoma
SK-OV-3 ovarian = test system: SK-OV-3 ovarian
SN12C renal = test system: SN12C renal
SNB-19 CNS = test system: SNB-19 CNS
SR leukemia = test system: SR leukemia
SW-620 colon = test system: SW-620 colon
T-47D breast = test system: T-47D breast
TK-10 renal = test system: TK-10 renal
U251 CNS = test system: U251 CNS
UACC-257 melanoma = test system: UACC-257 melanoma
UACC-62 melanoma = test system: UACC-62 melanoma

`N#Cc1c(-c2ccc(F)cc2)nc(SCc2ccc(F)cc2)nc1N1CCNCC1` was tested, and the GI50 (786-0 renal) was 13.8 µM, the TGI (786-0 renal) was 29.3 µM and the GI50 (A498 renal) was 15.3 µM. It also gave a TGI (A498 renal) of 29.8 µM, a GI50 (A549 NSCLC) of 11.5 µM and a TGI (A549 NSCLC) of 25 µM. It also gave a GI50 (ACHN renal) of 15 µM, a TGI (ACHN renal) of 28.5 µM and a GI50 (BT-549 breast) of 10.7 µM. For the same compound, the TGI (BT-549 breast) was 23 µM, the GI50 (CAKI-1 renal) was 15.3 µM and the TGI (CAKI-1 renal) was 29 µM. It also gave a GI50 (CCRF-CEM leukemia) of 14.8 µM, a TGI (CCRF-CEM leukemia) of 33.6 µM and a GI50 (COLO 205 colon) of 1.83 µM. The TGI (COLO 205 colon) was 3.4 µM, the GI50 (DU-145 prostate) was 16.8 µM and the TGI (DU-145 prostate) was 31.3 µM. The GI50 (EKVX NSCLC) was 13.1 µM, the TGI (EKVX NSCLC) was 26.4 µM and the GI50 (HCC-2998 colon) was 2.53 µM. The TGI (HCC-2998 colon) was 6.27 µM, the GI50 (HCT-116 colon) was 4.15 µM and the TGI (HCT-116 colon) was 15.6 µM. For the same compound, the GI50 (HCT-15 colon) was 11.7 µM, the TGI (HCT-15 colon) was 24.6 µM and the GI50 (HL-60(TB) leukemia) was 7.66 µM. For the same compound, the TGI (HL-60(TB) leukemia) was 24 µM, the GI50 (HOP-62 NSCLC) was 17 µM and the TGI (HOP-62 NSCLC) was 33.4 µM. The GI50 (HOP-92 NSCLC) was 7.64 µM, the TGI (HOP-92 NSCLC) was 22.1 µM and the GI50 (HS 578T breast) was 15.6 µM. For the same compound, the TGI (HS 578T breast) was 34.6 µM, the GI50 (HT29 colon) was 4.87 µM and the TGI (HT29 colon) was 17.3 µM. It also gave a GI50 (IGROV1 ovarian) of 15.6 µM, a TGI (IGROV1 ovarian) of 29.8 µM and a GI50 (K-562 leukemia) of 3.76 µM. The TGI (K-562 leukemia) was 17.8 µM, the GI50 (KM12 colon) was 18 µM and the TGI (KM12 colon) was 33.6 µM. The GI50 (LOX IMVI melanoma) was 2.28 µM, the TGI (LOX IMVI melanoma) was 5.69 µM and the GI50 (M14 melanoma) was 13.6 µM. For the same compound, the TGI (M14 melanoma) was 26.8 µM, the GI50 (MALME-3M melanoma) was 14.7 µM and the TGI (MALME-3M melanoma) was 28.4 µM. For the same compound, the GI50 (MCF7 breast) was 6.43 µM, the TGI (MCF7 breast) was 20.2 µM and the GI50 (MDA-MB-435) was 16.8 µM. The TGI (MDA-MB-435) was 31.3 µM, the GI50 (MDA-MB-468 breast) was 12.4 µM and the TGI (MDA-MB-468 breast) was 26.2 µM. The GI50 (MOLT-4 leukemia) was 10.5 µM, the TGI (MOLT-4 leukemia) was 26 µM and the GI50 (NCI-H226 lung) was 15.9 µM. It also gave a TGI (NCI-H226 lung) of 35.7 µM, a GI50 (NCI-H23 lung) of 16 µM and a TGI (NCI-H23 lung) of 30.4 µM. It also gave a GI50 (NCI-H460 lung) of 14.3 µM, a TGI (NCI-H460 lung) of 29.4 µM and a GI50 (NCI-H522 lung) of 13.9 µM. It also gave a TGI (NCI-H522 lung) of 29.9 µM, a GI50 (NCI/ADR-RES ovarian) of 13.7 µM and a TGI (NCI/ADR-RES ovarian) of 30.4 µM. It also gave a GI50 (OVCAR-3 ovarian) of 15.5 µM, a TGI (OVCAR-3 ovarian) of 30.8 µM and a GI50 (OVCAR-4 ovarian) of 16.5 µM. It also gave a TGI (OVCAR-4 ovarian) of 33.6 µM, a GI50 (OVCAR-5 ovarian) of 14.5 µM and a TGI (OVCAR-5 ovarian) of 28 µM. It also gave a GI50 (OVCAR-8 ovarian) of 13.2 µM, a TGI (OVCAR-8 ovarian) of 30.5 µM and a GI50 (PC-3 prostate) of 12.5 µM. It also gave a TGI (PC-3 prostate) of 27.7 µM, a GI50 (RPMI-8226 leukemia) of 6.75 µM and a TGI (RPMI-8226 leukemia) of 24.6 µM. It also gave a GI50 (RXF 393 renal) of 7.3 µM, a TGI (RXF 393 renal) of 21.4 µM and a GI50 (SF-268 CNS) of 14.1 µM. For the same compound, the TGI (SF-268 CNS) was 30.9 µM, the GI50 (SF-295 CNS) was 16.6 µM and the TGI (SF-295 CNS) was 30.9 µM. The GI50 (SF-539 CNS) was 15.6 µM, the TGI (SF-539 CNS) was 29 µM and the GI50 (SK-MEL-28 melanoma) was 16.4 µM. It also gave a TGI (SK-MEL-28 melanoma) of 30.2 µM, a GI50 (SK-MEL-5 melanoma) of 16.8 µM and a TGI (SK-MEL-5 melanoma) of 30.5 µM. For the same compound, the GI50 (SK-OV-3 ovarian) was 16 µM, the TGI (SK-OV-3 ovarian) was 29.8 µM and the GI50 (SN12C renal) was 15.3 µM. It also gave a TGI (SN12C renal) of 29 µM, a GI50 (SNB-19 CNS) of 14.9 µM and a TGI (SNB-19 CNS) of 29.4 µM. It also gave a GI50 (SR leukemia) of 2.18 µM, a TGI (SR leukemia) of 5.07 µM and a GI50 (SW-620 colon) of 5.97 µM. The TGI (SW-620 colon) was 19.2 µM, the GI50 (T-47D breast) was 13.8 µM and the TGI (T-47D breast) was 30.4 µM. For the same compound, the GI50 (TK-10 renal) was 15 µM, the TGI (TK-10 renal) was 29.7 µM and the GI50 (U251 CNS) was 10.3 µM. The TGI (U251 CNS) was 24.7 µM, the GI50 (UACC-257 melanoma) was 14.8 µM and the TGI (UACC-257 melanoma) was 28.7 µM. It also gave a GI50 (UACC-62 melanoma) of 15.9 µM and a TGI (UACC-62 melanoma) of 29.9 µM.
